According to patent publication US20060167076A1, “Acutumine and acutumine compounds synthesis and use” (priority 2002, published 2006):

What was measured:
[1] = test system: scopolamine-induced memory impairments; experiment: Morris water maze test with scopolamine as amnesic agent; format: in vivo, mouse; details: 60 mg/kg p.o.; scopolamine 5 mg/kg i.p.; control animals 43 seconds
Description: The anti-amnesic effects of the compounds of the present invention have been evaluated using the Morris water maze test (Morris et al., Nature, 1986, 319, 774-776) in the mouse and scopolamine as amnesic agent. Kumming strain mice (18-24 g, Shanghai Experimental Animal Centre) of either sex were used. Mice were placed on the water maze (80×50×20 cm) and trained to find the platform. Following the period of one day's habituation, each mouse received 3 daily training sessions for seven days. Mice were trained to a criterion of finding the platform within 20 seconds and with <2 errors of entering a dead-end. Once a mouse met the criterion, training was reduced to one daily session until all mice met the criterion. Trained mice were randomly assigned to sub-groups. Compounds under study were dissolved in distilled water and administered by the oral route 40 minutes before behavioural testing. Scopolamine (5 mg/kg, i.p.) was injected 30 minutes before the test. The number of errors and the time for reaching the platform were recorded. Data were expressed as means±s.e.m. Statistical analysis was performed using ANOVA followed by Duncan's multiple-range test.

[2] = test system: animal experimental models; experiment: Mnemocognition in animal experimental models (unspecified); format: in vivo
[3] = test system: Wistar rat; experiment: Social recognition in the Wistar rat; format: in vivo; details: 20 mg/kg; second encounter after 2 hours
Description: Initially described in 1982 by THOR and HOLLOWAY (J. Comp. Physiol., 1982, 29 1000-1006), the social recognition test has subsequently been proposed by various authors (DANTZER et al., Psychopharmacology, 1987, 91, 363-368; PERIO et al., Psychopharmacology, 1989, 97, 262-268) for studying the mnemocognitive effects of new compounds. The test is based on the natural expression of the olfactory memory of the rat and its natural tendency to forget and allows evaluation of memorisation, by recognition of a young congeneric animal, by an adult rat. A young rat (21 days), taken at random, is placed for 5 minutes in the cage housing an adult rat. With the aid of a video device, the experimenter observes the social recognition behaviour of the adult rat and measures its overall duration. The young rat is then removed from the adult rat's cage and is placed in its own cage until the second introduction. The adult rat is given the compound under test and, after 2 hours, is again brought into the presence (5 minutes) of the young rat. The social recognition behaviour is then observed again and its duration measured. The assessment criterion is the difference (T2−T1), expressed in seconds, between the “recognition” times of the 2 encounters.

[4] = test system: Wistar rat; experiment: Object recognition in the Wistar rat; format: in vivo; details: 10 mg/kg; second session 24 hours later
Description: The object recognition test in the Wistar rat was initially developed by ENNACEUR and DELACOUR (Behav. Brain Res., 1988, 31, 47-59). The test is based on the spontaneous exploratory activity of the animal and has the characteristics of episodic memory in humans. This memory test is sensitive to ageing (SCALI et al., Eur. J. Pharmacol., 1997, 325, 173-180) and to cholinergic dysfunctions (BARTOLINI et al., Pharm. Biochem. Behav. 1996, 53(2), 277-283) and is based on the differences in the exploration of 2 objects of fairly similar shape—one familiar, the other new. Prior to the test, the animals are habituated to the environment (an enclosure without an object). In the course of a first session, the rats are placed (3 minutes) in the enclosure, in which there are 2 identical objects. The duration of exploration is measured for each object. In the course of the second session (3 minutes), 24 hours later, 1 of the 2 objects is replaced by a new object. The duration of exploration is measured for each object. The assessment criterion is the difference, Delta, expressed in seconds, between the exploration times for the new object and for the familiar object in the course of the second session.

## CCC(=O)OC1C(OC)=CC(=O)[C@]12[C@@H](Cl)CC13C(OC)=C(OC)C(=O)CC12CCN3C (stereo partly drawn) [Example 1, Spiro[(4S,5S)-4-(ethoxycarbonyl)-3-methoxy-2-cyclopenten-1-one-5:3(2S)-2-chloro-3aS,7aS-((2,3)-1-methylpyrrolidine)-6,7-dimethoxy-1,2,3,3a,4,7a-hexahydro-5H-inden-5-one]]
[1]
  time for reaching the platform: ≤ 18 s

## COC1=CC(=O)C2(C1O)[C@@H](Cl)CC13C(OC)=C(OC)C(=O)CC21CCN3C (stereo partly shown) [acutumine]
[2]
  mnemocognition-facilitating properties: mnemocognition-facilitating properties

## Spiro[(4S,5S)-4-hydroxy-3-methoxy-2-cyclopenten-1-one-5:3(2S)-2-chloro-3aS,7aS-((2,3)-1-methylpyrrolidine)-6,7-dimethoxy-1,2,3,3a,4,7a-hexahydro-5H-inden-5-one oxime] [Example 4]
[3]
  difference (T2−T1) between recognition times of the 2 encounters: -45 s
[4]
  difference, Delta, between exploration times for the new and the familiar object: 8 s
